Source: PubChem BioAssay (NCI)
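Cultured in 96-well plates, cells were exposed to test compound for 48 hours across five concentrations. At the GI50, growth is halved. At the TGI there is no net growth.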

Key:
Assay in all cases: NCI anticancer screen, dose series, 48 h
[1] = system: A498 renal
[2] = system: HCT-116 colon
[3] = system: IGROV1 ovarian
[4] = system: LOX IMVI melanoma
[5] = system: MDA-N
[6] = system: OVCAR-3 ovarian
[7] = system: SF-268 CNS
[8] = system: SK-MEL-5 melanoma
[9] = system: SN12C renal
[10] = system: SW-620 colon
[11] = system: A549 NSCLC
[12] = system: U251 CNS

| SMILES | TGI [1] | TGI [2] | TGI [3] | TGI [4] | TGI [5] | TGI [6] | TGI [7] | TGI [8] | TGI [9] | TGI [10] | TGI [11] | TGI [12] | GI50 [11] | GI50 [3] | GI50 [6] | GI50 [7] | GI50 [8] | GI50 [9] | GI50 [10] |
| --- | --- | --- | --- | --- | --- | --- | --- | --- | --- | --- | --- | --- | --- | --- | --- | --- | --- | --- | --- |
| Clc1ccc(-c2nnc(-c3c(Cl)c(Cl)c(Cl)c(Cl)c3-c3nc4ccccc4[nH]3)o2)cc1 | > 100 µM | > 100 µM | > 100 µM | > 100 µM | > 100 µM | > 100 µM | > 100 µM | > 100 µM | > 100 µM | > 100 µM |  |  |  |  |  |  |  |  |  |
| O=c1/c(=C/c2ccc([N+](=O)[O-])o2)sc2n1[C@@H](c1ccc3c(c1)OCO3)C=C(c1cc(F)c(Cl)cc1Cl)N=2 | > 100 µM | 28 µM | 33.4 µM | 42.9 µM | 43.3 µM | 35.3 µM | > 100 µM | 24 µM | 56.7 µM | > 100 µM | > 100 µM | 46.5 µM |  |  |  |  |  |  |  |
| COc1cc2c(cc1OCCCN1CCN(c3ncnc4ccccc34)CC1)N=CC1CCCN1C2=O (centres undefined) | 0.0164 µM |  | 0.0269 µM |  |  | 0.0595 µM | 0.625 µM | 0.0323 µM | 3.97 µM | 0.0556 µM | > 47.9 µM |  | 0.0356 µM | 0.0126 µM | 0.0269 µM | 0.0339 µM | 0.0168 µM | 0.0374 µM | 0.0198 µM |
| Nc1nc(=O)n(CC(O)CO)s1 (centres undefined) | > 100 µM | > 100 µM | > 100 µM | > 100 µM |  | > 100 µM | > 100 µM | > 100 µM | > 100 µM | > 100 µM | > 100 µM | > 100 µM |  |  |  |  |  |  |  |
| N#C[S-].[Ce+3].c1cnc2c(c1)ccc1cccnc12.c1cnc2c(c1)ccc1cccnc12.c1cnc2c(c1)ccc1cccnc12 | 14.5 µM | 5.5 µM | > 100 µM | 10.9 µM |  | 14.9 µM |  | 15.2 µM | 13.1 µM | 46.8 µM | 10.1 µM | 12.6 µM |  |  |  |  |  |  |  |
| Fc1c(F)c(C(F)(F)F)c(F)c(F)c1N/N=C/c1cn(Cc2ccccc2)c2ccccc12 | 88.6 µM | 89.5 µM | > 100 µM | 47.3 µM |  | 36.6 µM | > 100 µM | 36 µM | 92 µM | > 100 µM | 72.7 µM | > 100 µM |  |  |  |  |  |  |  |
| O=C1C[C@H](CCC(=O)OCc2ccccc2)NC(=O)C[C@H](CCC(=O)OCc2ccccc2)NC(=O)C[C@H](CCC(=O)OCc2ccccc2)N1 | 30.8 µM | > 100 µM | > 100 µM | > 100 µM | > 100 µM | > 100 µM |  | > 100 µM | > 100 µM | > 100 µM | > 100 µM | > 100 µM |  |  |  |  |  |  |  |
| C[C@]12CCC(=O)C=C1CC[C@@H]1[C@@H]2[C@@H](O)C[C@@]2(C)[C@H]1CC[C@]2(O)C(=O)COC(=O)C1CCCC1 | > 100 µM | > 100 µM | > 100 µM | > 100 µM | > 100 µM | > 100 µM | > 100 µM | > 100 µM | > 100 µM | > 100 µM | > 100 µM | > 100 µM |  |  |  |  |  |  |  |
| CNC(=O)Nc1ccccc1 | > 100 µM | > 100 µM | > 100 µM | > 100 µM | > 100 µM | > 100 µM | > 100 µM | > 100 µM | > 100 µM | > 100 µM | > 100 µM | > 100 µM |  |  |  |  |  |  |  |
| CC(=O)C1=C(O)CCC1=O |  | > 100 µM | > 100 µM | > 100 µM |  | > 100 µM | > 100 µM | > 100 µM | > 100 µM | > 100 µM | > 100 µM | > 100 µM |  |  |  |  |  |  |  |
